Reference: patent US20150004106A1, “ACNE treatment method” (priority 2013, published 2015)

Tests used:
acne = experiment: case study of topical beta-sitosterol treatment of acne; format: in vivo; conditions: for reduction in acne: end of study, after four weeks of application; for mean reduction in acne: first week
Text: This vehicle containing the beta-sitosterol is applied to the sites of the subcutaneous gland disorders on a twice daily basis (morning and evening).
FIG. 4 is a table indicating the results found in a case study.
The study used a cross section of the population having a distribution of sexes, ages, and areas being affected.
At the end of the study, after four weeks of application, the women found a fifty percent reduction with the men showing a forty-five percent reduction.

[1] = alcohols; cited from earlier work

Q: Which “change of acne in the affected areas” value (acne; all cases, start of use) does the source give for `CCC(CCC(C)C1CCC2C3CC=C4CC(O)CCC4(C)C3CCC12C)C(C)C` (stereo not drawn) [beta-sitosterol, 17-(5-Ethyl-6-methylheptan-2-yl)-10-13-dimethyl-2,3,4,7,8,9,11,12,14,16,17-deodeccahydrom-1H-cyclopental(alpha)phenanthren-3-ol] here?
A: immediate reduction in the acne

Q: And the “change of acne with continuous use” value (acne; all of the subjects, continuous use)?
A: further reductions in acne

Q: And the reduction in acne (acne; men)?
A: forty-five

Q: And the “mean reduction in acne” value (acne; men)?
A: 10%

Q: And the reduction in acne (acne; women)?
A: fifty

Q: What about the “mean reduction in acne” value (acne; women) of the same compound?
A: 10%

Q: And the solubility [1]?
A: hydrophobic and soluble in alcohols
